Data from patent publication US20100029643A1 (ASTRAZENECA AB, priority 2006, published 2010).

Biological target: T1, Edg-1/S1P1 receptor (Homo sapiens, UniProt P21453)
T1 construct: expressed in transfected cells; host or cells: human osteogenic sarcoma U2OS cells: Edg-1 Transfluor U2OS WT Clone #37 (assay I), Edg-1 Transfluor U2OS Clone #3 (assay II)
Experiment: In vitro cell based receptor activation assay - Transfluor assay (assay I or II; beta-arrestin GFP relocalization after S1P stimulation)
Settings: for inhibition at 3.5 µM: at 3.50 μM (titrated from top concentration 10 μM)
Excerpt: The following assays can be used to measure the effects of the compounds of the present invention as S1P1/Edg1 inhibitors.
I. In Vitro Cell Based Receptor Activation Assay-Transfluor Assay
(§1) This cell-based assay was designed to assess the ability of small molecule antagonists to inhibit activation of the GPCR S1P1 in the presence of its cognate ligand S1P. The assay used technology initially developed by Norak Biosciences (Xsira Pharmaceutical) and presently owned by Molecular Devices. A human osteogenic sarcoma (U2OS) cell line overexpressing the Edg-1/S1P1) receptor as well as a beta-arrestin/green fluorescent protein (GFP) construct hereafter termed Edg-1 Transfluor U2OS WT Clone #37 was employed.
Using a high content screening approach (Cellomics Arrayscan), receptor activity was measured by assessment of the relocalization of beta-arrestin GFP in response to stimulation of Edg-1 by SIP. Specifically, Edg-1 Transfluor U2OS WT Clone #37 cells were plated at a density of 6250 cells in 40 μL medium per well in 384 well plastic bottomed microtiter plates (BD Falcon) and incubated overnight at 37° C./5% CO2. Prior to screening, compounds were dissolved in 100% dimethyl sulfoxide (DMSO) to a final stock concentration of 10 mM. Compounds were then serially diluted at 30× final concentration in Edg-1 Transfluor cell growth medium containing […] using the Tecan Genesis instrument. These 30× plates were then diluted to 6× final concentration with Edg-1 Transfluor growth medium just prior to dosing. Cells were then dosed with 10 μL per well of 6× compound dilutions or 6% DMSO and pre-incubated for 15 minutes at room temperature. Cell plates were dosed with 10 μL per well 6× S1P Edg-1 Transfluor growth medium, then incubated for 45 minutes at 37° C./5% CO2. Final concentration in the well of DMSO was 1%, compound was IX (3-fold, 9 point IC50 dilutions starting at 100 μM final concentration), and either 375 nM or […] SIP ligand. Cell plates were then fixed by adding 50 μL per well of 5% formaldehyde in 1× Dulbecco's phosphate buffered saline (DPBS) directly and incubating for 30 minutes at room temperature in darkness. Fixative was removed and replaced with 50 μL per well of 1×DPBS, after which cells were stained with 10 μg/mL final concentration of Hoechst 33342 (Molecular Probes) for 15 minutes at room temperature in darkness. Stain was then removed from the plates and replaced with 50 μL per well of 1×DPBS using the BioTek ExL405 plate washer. Plates were then sealed and analysed on the Cellomics Arrayscan using the GPCR signalling algorithm. EC50 values were then calculated using IDBS ActivityBase software.
II. In Vitro Cell Based Receptor Activation Assay-Transfluor Assay
as §1, with “Devices (MDS Analytical Technologies).” for “Devices.”, “U2OS” for “U2OS WT”, “#3” for “#37”
Using a high content screening approach (Molecular Devices Image Express), receptor activity was measured by assessment of the relocalization of beta-aiTestin GFP in response to stimulation of Edg-1 by S1P. Specifically, Edg-1 Transfluor U2OS Clone #3 cells were plated at a density of 6250 cells in 44 μL medium per well in 384 well plastic bottomed microtiter plates (BD Falcon) and incubated overnight at 37° C./5% CO2. Prior to screening, compounds were dissolved in 100% dimethyl sulfoxide (DMSO) to a final stock concentration of 10 mM. Compounds were then serially diluted at 10× final concentration in Edg-1 Transfluor cell growth medium containing 6% DMSO using the BioMek instrument. […]

[1] = at 3.70 μM (titrated from top concentration 100 μM)

T1 sequence (P21453 whole entry): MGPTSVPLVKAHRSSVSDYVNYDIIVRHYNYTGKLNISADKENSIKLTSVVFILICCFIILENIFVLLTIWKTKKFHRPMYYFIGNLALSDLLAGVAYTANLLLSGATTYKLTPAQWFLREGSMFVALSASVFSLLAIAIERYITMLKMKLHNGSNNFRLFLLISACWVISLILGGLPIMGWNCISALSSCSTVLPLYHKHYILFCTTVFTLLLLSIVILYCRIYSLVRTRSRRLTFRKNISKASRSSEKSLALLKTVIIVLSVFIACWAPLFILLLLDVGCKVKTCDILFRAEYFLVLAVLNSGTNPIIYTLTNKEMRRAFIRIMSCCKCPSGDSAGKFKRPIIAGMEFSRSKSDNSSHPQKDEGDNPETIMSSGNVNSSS

inhibition at 3.5 µM [%] | inhibition at 3.7 µM [1] [%] | Compound | further results
84.6 |  | CCn1c([C@H](C)NS(=O)(=O)c2ccc(Cl)cc2)nc2ccc(C(F)(F)F)cc21 [Example 100, 4-Chloro-N-{(1S)-1-[1-ethyl-6-(trifluoromethyl)-1H-benzimidazol-2-yl]ethyl}benzenesulfonamide] | 
86.1 |  | CCn1c([C@@H](C)NS(=O)(=O)c2ccc(Cl)cc2)nc2cc(C(F)(F)F)ccc21 [Example 92, 4-Chloro-N-{(1R)-1-[1-ethyl-5-(trifluoromethyl)-1H-benzimidazol-2-yl]ethyl}benzenesulfonamide] | 
78.4 |  | CCn1c(C(C)(C)NS(=O)(=O)c2ccc(C#N)cc2)nc2ccc(C(F)(F)F)cc21 [Example 138, 4-Cyano-N-[1-(1-ethyl-6-trifluoromethyl-1H-benzoimidazol-2-yl)-1-methyl-ethyl]-benzenesulfonamide] | 
90.3 |  | CCn1c([C@@H](C)NS(=O)(=O)c2ccc(F)cc2)nc2cnccc21 [Example 104, 4-Fluoro-N-[(1R)-1-(1-ethyl-1H-imidazo[4,5-c]pyridin-2-yl)ethyl]benzenesulfonamide] | 
90.3 |  | CCn1c([C@@H](C)NS(=O)(=O)c2cncc(Cl)c2)nc2ccc(C(F)(F)F)cc21 [Example 129, R-5-chloro-N-(1-(1-ethyl-6-(trifluoromethyl)-1H-benzo[d]imidazol-2-yl)ethyl)pyridine-3-sulfonamide] | 
84.8 |  | CCn1c([C@@H](C)NS(=O)(=O)c2ccc(Cl)cc2)nc2ccc(C(F)(F)F)cc21 [Example 9, 4-Chloro-N-{(1R)-1-[1-ethyl-6-(trifluoromethyl)-1H-benzimidazol-2-yl]ethyl} benzene-sulfonamide] | 
77.3 |  | CCn1c(C(C)(C)NS(=O)(=O)c2ccc(C#N)cc2)nc2cnc(C(F)(F)F)cc21 [Example 154, 4-Cyano-N-(2-(1-ethyl-6-(trifluoromethyl)-1H-imidazo[4,5-c]pyridin-2-yl)propan-2-yl)benzenesulfonamide] | 
 | 89.9 | CCn1c(C(C)NS(=O)(=O)c2ccc(Cl)cc2)nc2ccc(Cl)cc21 (centres unmarked) [Example 10, 4-Chloro-N-[1-(6-chloro-1-ethyl-1H-benzimidazol-2-yl)ethyl]benzenesulfonamide] | 
 | 39 | CC(NS(=O)(=O)c1ccc(Cl)cc1)c1nc2ccccc2n1C1CC1 (centres unmarked) [Example 21, 4-Chloro-N-[1-(1-cyclopropyl-1H-benzimidazol-2-yl)ethyl]benzenesulfonamide] | EC50 (one or the other of the two Transfluor assays, Edg-1 Transfluor U2OS cells, S1P ligand): 5.15 µM
 | 78.6 | CCn1ncc(S(=O)(=O)N[C@H](C)c2nc3ccc(C(F)(F)F)cc3n2CC)c1C [Example 31, 1-Ethyl-N-{(1R)-1-[1-ethyl-6-(trifluoromethyl)-1H-benzimidazol-2-yl]ethyl}-5-mthyl-1H-pyrazole-4-sulfonamide] | 
 | 44.9 | CCn1c([C@@H](C)NS(=O)(=O)c2ccc(Cl)cc2)nc2cc(C(F)(F)F)c(Cl)cc21 [Example 85, 4-Chloro-N-{(1R)-1-[6chloro-1-ethyl-5-(trifluoromethyl)-1H-benzimidazol-2-yl]ethyl}benzenesulfonamide] | 
14.9 |  | CCn1c([C@@H](C)NS(=O)(=O)c2ccccn2)nc2ccc(C(F)(F)F)cc21 [Example 125, N-{(1R)-1-[1-Ethyl-6-(trifluoromethyl)-1H-benzimidazol-2-yl]ethyl}pyridine-2-sulfonamide] | 
 | 50.6 | CCn1c([C@@H](C)NS(=O)(=O)c2ccc(Cl)cc2)nc2cc(OC(F)(F)F)ccc21 [Example 64, 4-Chloro-N-{(1R)-1-[1-ethyl-5-(trifluoromethoxy)-1H-benzimidazol-2-yl]ethyl}benzenesulfonamide] | 
86.2 |  | CCn1c([C@@H](C)NS(=O)(=O)c2cccn2C)nc2ccc(C(F)(F)F)cc21 [Example 187, (R)—N-(1-(1-Ethyl-6-(trifluoromethyl)-1H-benzo[d]imidazol-2-yl)ethyl)-1-methyl-1H-pyrrole-2-sulfonamide] | 
 | 92.1 | CCn1c([C@@H](C)NS(=O)(=O)c2cnc(Cl)c(Br)c2)nc2ccc(C(F)(F)F)cc21 [Example 49, 5-Bromo-6-chloro-N-{(1R)-1-[1-ethyl-6-(trifluoromethyl)-1H-benzimidazol-2-yl]ethyl}pyridine-3-sulfonamide] | 
91.4 |  | CCn1c([C@@H](C)NS(=O)(=O)c2ccnc(C)c2)nc2ccc(C(F)(F)F)cc21 [Example 161, (R)-N-(1-(1-Ethyl-6-(trifluoromethyl)-1H-benzo[d]imidazol-2-yl)ethyl)-2-methylpyridine-4-sulfonamide] | 
86.4 |  | CCn1c([C@@H](C)NS(=O)(=O)c2ccncc2)nc2ccc(C(F)(F)F)cc21 [Example 127, (R)-N-(1-(1-Ethyl-6-(trifluoromethyl)-1H-benzo[d]imidazol-2-yl)ethyl)pyridine-4-sulfonamide] | 
87.1 |  | CCn1c(C(C)NS(=O)(=O)c2cnc(N)c(Cl)c2)nc2ccc(C(F)(F)F)cc21 (centres unmarked) [Example 169, 6-amino-5-chloro-N-(1-(1-ethyl-6-(trifluoromethyl)-1H-benzo[d]imidazol-2-yl)ethyl)pyridine-3-sulfonamide] | 
 | 66.4 | CCn1c(C(CC(C)C)NS(=O)(=O)c2ccc(Cl)cc2)nc2ccccc21 (centres unmarked) [Example 4, 4-Chloro-N-[1-(1-ethyl-1H-benzimidazol-2-yl)-3-methyl-butyl}benzenesulfonamide] | 
56.5 |  | CCn1c(C(C)(C)NS(=O)(=O)c2ccc(F)cc2)nc2cnc(C3CC3)cc21 [Example 186, 4-Fluoro-N-[1-(6-cyclopropyl-1-ethyl-1H-imidazo[4,5-c]pyridin-2-yl)-1-methyl-ethyl]-benzenesulfonamide] | 
 | 78.2 | CCn1c([C@@H](C)NS(=O)(=O)c2ccc(Cl)cc2)nc2cc(C)c(Cl)cc21 [Example 59, 4-Chloro-N-[(1R)-1-(6-chloro-1-ethyl-5-methyl-1H-benzimidazol-2-yl)ethyl]benzenesulfonamide] | 
 |  | 4-Chloro-N-{1-[1-ethyl-6-(methylsulfonyl)-1H-benzimidazol-2-yl]ethyl}benzenesulfonamide [Example 80] | % inhibition [1]: [drawing 92] 4-Chloro-N-{1-[1-ethyl-6- (methylsulfonyl)-1H- benzimidazol-2-yl]ethyl}benzenesulfonamide (22.57% inhibition at 3.70 μM)
 | 89.6 | CCn1c([C@@H](C)NS(=O)(=O)c2ccsc2)nc2ccc(C(F)(F)F)cc21 [Example 47, N-{(1R)-1-[1-Ethyl-6-(trifluoromethyl)-1H-benzimidazol-2-yl]ethyl}thiophene-3-sulfonamide] | 
 | 21.7 | CCn1c([C@@H](C)NS(=O)(=O)c2ccc(Cl)cc2)nc2ccc(C(=O)N(C)C)cc21 (stereo in doubt) [Example 72, 2-(1-{[(4-Chlorophenyl)sulfonyl]amino}-ethyl)-1-ethyl-N,N-dimethyl-1H-benzimidazole-6-carboxamide] | 
97.5 |  | CCn1c([C@@H](C)NS(=O)(=O)c2ccc(C(=O)OC)n2C)nc2ccc(C(F)(F)F)cc21 [Example 40, (R)-methyl 5-(N-(1-(1-ethyl-6-(trifluoromethyl)-1H-benzo[d]imidazol-2-yl)ethyl)sulfamoyl)-1-methyl-1H-pyrrole-2-carboxylate] | 
